From ChEMBL document CHEMBL1138976, “Anti-HIV activity of stilbene-related heterocyclic compounds” (Bioorg Med Chem Lett, 2006)
Active and inactive are the calls of the source. The calls are words filed in the database; no cut-off is given here.

Tests used:
[1] = system: Human immunodeficiency virus; assay: Inhibition of HIV replication by recombinant virus assay; type: functional, organism-based
[2] = target: Nuclear factor NF-kappa-B complex (Homo sapiens) (UniProt Q00653+P19838+Q04206); assay: Inhibition of TNFalpha activated NF-kappaB mediated transactivation of HIV-1 LTR Luc in 5.1 cells at 100 uM; type: functional, cell-based
[3] = target: T1, Protein Tat (Human immunodeficiency virus type 1 group M subtype B (isolate PCV12)(HIV-1)) (UniProt P04326); assay: Inhibition of Tat activity in HeLa cells transfected with Tat-Luc at 100 uM; type: functional, cell-based
T1 sequence (whole entry): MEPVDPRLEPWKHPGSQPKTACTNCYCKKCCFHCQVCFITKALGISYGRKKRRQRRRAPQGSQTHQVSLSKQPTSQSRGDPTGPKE

[4] = system: Human immunodeficiency virus; assay: Specificity against NF-kappaB and Tat proteins assessed by activity in Hela Tet-ON assay; type: functional
[5] = Cytotoxicity by Propidium Iodide staining
[6] = system: Human immunodeficiency virus; assay: Ratio of cytotoxic activity to anti HIV activity; type: functional

Sequence of Nuclear factor NF-kappa-B complex (Homo sapiens) (P19838 whole entry, looked up): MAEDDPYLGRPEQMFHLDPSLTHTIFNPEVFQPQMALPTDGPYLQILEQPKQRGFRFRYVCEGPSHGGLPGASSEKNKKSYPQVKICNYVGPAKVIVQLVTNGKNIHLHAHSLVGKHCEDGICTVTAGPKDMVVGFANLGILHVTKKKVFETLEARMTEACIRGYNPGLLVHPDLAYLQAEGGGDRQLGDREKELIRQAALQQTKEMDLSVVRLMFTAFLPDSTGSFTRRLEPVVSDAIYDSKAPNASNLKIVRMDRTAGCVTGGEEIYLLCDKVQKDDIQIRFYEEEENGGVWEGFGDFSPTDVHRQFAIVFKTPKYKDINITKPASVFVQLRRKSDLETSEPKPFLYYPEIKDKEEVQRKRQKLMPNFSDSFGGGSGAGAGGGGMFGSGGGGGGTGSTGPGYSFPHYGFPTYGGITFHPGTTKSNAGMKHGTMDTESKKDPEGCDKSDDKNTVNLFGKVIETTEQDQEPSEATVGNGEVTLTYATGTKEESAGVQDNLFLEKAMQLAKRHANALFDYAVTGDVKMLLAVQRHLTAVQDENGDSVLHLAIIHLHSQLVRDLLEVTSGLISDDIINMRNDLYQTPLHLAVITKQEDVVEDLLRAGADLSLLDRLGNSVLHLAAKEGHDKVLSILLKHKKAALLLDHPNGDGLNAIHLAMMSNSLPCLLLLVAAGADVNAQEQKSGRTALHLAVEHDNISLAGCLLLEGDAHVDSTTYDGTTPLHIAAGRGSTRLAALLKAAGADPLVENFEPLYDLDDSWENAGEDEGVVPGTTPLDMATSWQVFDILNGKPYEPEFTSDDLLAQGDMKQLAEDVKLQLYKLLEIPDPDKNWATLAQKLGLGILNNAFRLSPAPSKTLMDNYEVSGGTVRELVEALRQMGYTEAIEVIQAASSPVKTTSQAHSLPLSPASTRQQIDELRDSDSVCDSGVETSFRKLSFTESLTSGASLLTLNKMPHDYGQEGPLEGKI
Sequence of Nuclear factor NF-kappa-B complex (Homo sapiens) (Q00653 whole entry, looked up): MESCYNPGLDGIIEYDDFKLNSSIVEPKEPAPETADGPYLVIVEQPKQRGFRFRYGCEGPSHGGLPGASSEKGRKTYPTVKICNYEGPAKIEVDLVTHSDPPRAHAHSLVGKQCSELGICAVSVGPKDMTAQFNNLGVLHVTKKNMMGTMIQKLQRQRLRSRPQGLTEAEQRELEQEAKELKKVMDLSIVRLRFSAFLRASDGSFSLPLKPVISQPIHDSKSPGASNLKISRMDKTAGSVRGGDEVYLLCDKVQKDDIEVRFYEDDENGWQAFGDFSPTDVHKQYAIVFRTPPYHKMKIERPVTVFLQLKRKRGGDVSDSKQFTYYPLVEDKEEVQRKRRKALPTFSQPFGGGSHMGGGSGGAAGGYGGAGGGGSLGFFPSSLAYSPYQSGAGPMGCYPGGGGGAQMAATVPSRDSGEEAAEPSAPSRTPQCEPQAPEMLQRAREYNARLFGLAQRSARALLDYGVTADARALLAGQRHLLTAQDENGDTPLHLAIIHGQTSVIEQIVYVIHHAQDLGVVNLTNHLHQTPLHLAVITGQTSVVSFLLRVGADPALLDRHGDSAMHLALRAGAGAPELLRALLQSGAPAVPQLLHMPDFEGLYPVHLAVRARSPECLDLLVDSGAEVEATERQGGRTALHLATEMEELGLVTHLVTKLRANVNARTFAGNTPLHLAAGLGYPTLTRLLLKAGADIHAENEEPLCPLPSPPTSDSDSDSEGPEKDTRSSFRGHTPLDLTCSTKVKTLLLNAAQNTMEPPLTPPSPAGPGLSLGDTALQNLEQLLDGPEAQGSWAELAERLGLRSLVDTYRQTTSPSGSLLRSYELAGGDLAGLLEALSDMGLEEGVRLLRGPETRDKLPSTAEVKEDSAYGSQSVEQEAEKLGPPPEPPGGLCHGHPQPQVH
Sequence of Nuclear factor NF-kappa-B complex (Homo sapiens) (Q04206 whole entry, looked up): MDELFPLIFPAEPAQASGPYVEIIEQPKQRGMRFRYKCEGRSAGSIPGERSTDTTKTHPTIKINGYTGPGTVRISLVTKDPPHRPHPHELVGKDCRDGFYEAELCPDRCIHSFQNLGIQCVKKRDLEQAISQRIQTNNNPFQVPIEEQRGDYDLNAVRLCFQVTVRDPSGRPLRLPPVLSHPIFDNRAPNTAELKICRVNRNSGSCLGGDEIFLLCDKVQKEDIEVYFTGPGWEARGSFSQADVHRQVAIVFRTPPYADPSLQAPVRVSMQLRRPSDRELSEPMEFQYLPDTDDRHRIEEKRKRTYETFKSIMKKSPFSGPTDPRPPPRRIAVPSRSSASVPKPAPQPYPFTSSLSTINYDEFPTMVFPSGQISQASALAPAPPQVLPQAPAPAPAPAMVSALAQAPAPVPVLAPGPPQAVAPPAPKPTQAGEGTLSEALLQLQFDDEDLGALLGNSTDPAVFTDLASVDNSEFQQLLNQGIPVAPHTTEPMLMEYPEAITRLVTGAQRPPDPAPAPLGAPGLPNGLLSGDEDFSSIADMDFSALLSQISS

IC50 ([1]; Human immunodeficiency virus 1) [µM]	inhibition [2] [%]	inhibition [3] [%]	IC50 [1] [µM]	SMILES	Activity [4]	CC50 [5] [µM]	Ratio CC50/IC50 [6]
11	100	43.2	–	Cn1nc(Cc2cccc3ccccc23)c2ccccc2c1=O	Active	62.9	5.7
15.7	12.6	< 0	–	COc1ccc(Cc2nnc(O)c3ccccc23)cc1	–	> 149	>9.5
60.8	100	51.2	–	OC1(Cc2ccc3ccccc3c2)c2ccccc2C2=NCCCN21 (stereo not drawn)	inactive	81	1.3
23.4	86.7	89.7	–	CSc1ccc(/C=C2\OC(=O)c3ccccc32)cc1	Active	> 187	>8
16	83	6.7	–	CCCCn1nc(Cc2ccc(OC)c(OC)c2)c2ccccc2c1=O	Active	70.3	4.4
12.2	91.8	87.2	–	O=C1O/C(=C\c2ccc3c(c2)OCO3)c2ccccc21	Active	138	11.3
89.5	54.8	29.6	–	O=c1c2ccccc2c(Cc2ccc(Cl)cc2)nn1-c1ccc([N+](=O)[O-])cc1	inactive	96.3	1.1
71	< 0	38.4	–	OC1(Cc2ccc(Cl)cc2)c2ccccc2C2=NCCN21 (stereo not drawn)	inactive	> 168	–
> 50	< 0	6.5	–	O=C1O/C(=C\c2cccc3ccccc23)c2ccccc21	–	–	–
26.1	67.7	60	–	OC1(Cc2ccc(Cl)c(Cl)c2)c2ccccc2C2=NCCCN21 (stereo not drawn)	inactive	85.2	3.3
41.6	67.3	29.8	–	Oc1nnc(Cc2ccccc2Cl)c2ccccc12	inactive	> 185	>4.5
–	< 0	76.8	24.4	O=C1O/C(=C\c2ccccc2Cl)c2ccccc21 (stereo in doubt; 1b)	inactive	> 195	>8

Continued, compound first:

SMILES	IC50 ([1]; Human immunodeficiency virus 1) [µM]	inhibition [2] [%]	inhibition [3] [%]	IC50 [1] [µM]	Activity [4]	CC50 [5] [µM]	Ratio CC50/IC50 [6]
OC1(Cc2ccccc2Cl)c2cc(Cl)c(Cl)cc2C2=NCCN21 (stereo not drawn)	22.8	100	99.6	–	Active	30.1	1.3
O=C1O/C(=C\c2ccc(Cl)cc2)c2cc(Cl)c(Cl)cc21	45.6	3.2	< 0	–	–	> 154	>3.4
Cn1nc(Cc2ccc3c(c2)OCO3)c2ccccc2c1=O	27.4	97.2	25.5	–	inactive	131	4.8
OC1(Cc2ccccc2Cl)c2ccccc2C2=NCCCN21 (stereo not drawn)	66.7	99.7	< 0	–	inactive	78.6	1.2
Cc1ccc2c(c1)/C(=C/c1ccc(Cl)cc1)OC2=O	15.8	96.8	91.8	–	Active	–	–
Oc1nnc(Cc2ccc(Cl)c(Cl)c2)c2cc(Cl)c(Cl)cc12	19.5	14.9	28.4	–	–	64.7	3.3
CCn1nc(Cc2ccc(OC)cc2)c2ccccc2c1=O	22.3	93.5	14.2	–	inactive	89.5	4
COc1ccc(CC2(O)c3ccccc3C3=NCCCN32)cc1 (stereo not drawn)	74.2	< 0	3.8	–	–	> 162	>2.2
COc1cc(Cc2nnc(O)c3ccccc23)cc(OC)c1OC	51.7	96.5	< 0	–	inactive	135	2.6
Cn1nc(Cc2ccc3ccccc3c2)c2ccccc2c1=O	16.6	99.9	11.8	–	Active	57.2	3.5
Oc1nnc(Cc2ccc(Cl)cc2Cl)c2ccccc12	96.2	99	53.9	–	inactive	58	0.6
O=c1c2ccccc2c(Cc2ccc(Cl)cc2)nn1-c1ccccc1	58.7	86.4	< 0	–	inactive	67.7	1.2
Oc1nnc(Cc2ccccc2Cl)c2cc(Cl)c(Cl)cc12	22	65.9	11.2	–	inactive	> 147	>6.7
CSc1ccc(CC2(O)c3ccccc3C3=NCCCN32)cc1 (stereo not drawn)	61.5	99.8	13.9	–	inactive	142	2.3
Cn1nc(Cc2ccccc2)c2ccccc2c1=O	47.5	19.4	11.4	–	–	> 156	>3.3
O=C1O/C(=C\c2ccc(Cl)cc2)c2ccccc21	23.8	84.8	84.6	–	Active	> 195	>8.2
COc1ccc(CC2(O)c3cc(Cl)c(Cl)cc3C3=NCCN32)cc1 (stereo not drawn)	27.6	100	75.3	–	inactive	44.1	1.6
O=C1O/C(=C\c2ccc(Cl)cc2)c2c1cccc2[N+](=O)[O-]	119	< 0	63.7	–	Active	< 20.7	<0.2
CC(C)(C)n1nc(Cc2ccc(Cl)cc2)c2ccccc2c1=O	12.8	82.1	11.5	–	inactive	72.1	5.6
C=CCn1nc(Cc2ccc(OC)cc2)c2ccccc2c1=O	30.5	50	2.9	–	inactive	68.6	2.3
O=c1c2ccccc2c(Cc2ccc(Cl)cc2)nn1-c1ccc(Br)cc1	88.1	< 0	< 0	–	–	91.8	1
Cn1nc(Cc2ccc(Cl)cc2Cl)c2ccccc2c1=O	18.8	< 0	14	–	–	112	6
Cn1nc(Cc2ccccc2Cl)c2ccccc2c1=O	21.6	73	18.3	–	inactive	> 176	>8.2
OC1(Cc2ccc(Cl)cc2Cl)c2ccccc2C2=NCCN21 (stereo not drawn)	13.8	< 0	86.6	–	inactive	87.5	6.3
Cc1ccc2c(c1)/C(=C/c1ccccc1Cl)OC2=O	–	71	< 0	133	inactive	> 185	>1.4
COc1ccc(/C=C2\OC(=O)c3ccccc32)cc1	14.3	87.6	74	–	Active	–	–
